From ChEMBL document CHEMBL3991601, “The target landscape of clinical kinase drugs” (Science, 2017)
Active and inactive are the calls of the source. Rule as the data show it, for most assays here: actives have a measured Kd and inactives only a lower limit.

What was measured:
[1] = molecular target: Platelet-derived growth factor receptor beta (Homo sapiens, UniProt P09619)
[2] = molecular target: Protein-tyrosine kinase 2-beta (Homo sapiens, UniProt Q14289)
[3] = molecular target: Putative heat shock protein HSP 90-beta 2 (Homo sapiens, UniProt Q58FF8)
[4] = molecular target: Mitogen-activated protein kinase kinase kinase 1 (Homo sapiens, UniProt Q13233)
[5] = molecular target: Cyclin-dependent kinase 1 (Homo sapiens, UniProt P06493)
[6] = molecular target: Tyrosine-protein kinase SYK (Homo sapiens, UniProt P43405)
[7] = molecular target: Epithelial discoidin domain-containing receptor 1 (Homo sapiens, UniProt Q08345)
[8] = molecular target: T1, Serine/threonine-protein kinase Nek3 (Homo sapiens, UniProt P51956)
T1 sequence (P51956 whole entry): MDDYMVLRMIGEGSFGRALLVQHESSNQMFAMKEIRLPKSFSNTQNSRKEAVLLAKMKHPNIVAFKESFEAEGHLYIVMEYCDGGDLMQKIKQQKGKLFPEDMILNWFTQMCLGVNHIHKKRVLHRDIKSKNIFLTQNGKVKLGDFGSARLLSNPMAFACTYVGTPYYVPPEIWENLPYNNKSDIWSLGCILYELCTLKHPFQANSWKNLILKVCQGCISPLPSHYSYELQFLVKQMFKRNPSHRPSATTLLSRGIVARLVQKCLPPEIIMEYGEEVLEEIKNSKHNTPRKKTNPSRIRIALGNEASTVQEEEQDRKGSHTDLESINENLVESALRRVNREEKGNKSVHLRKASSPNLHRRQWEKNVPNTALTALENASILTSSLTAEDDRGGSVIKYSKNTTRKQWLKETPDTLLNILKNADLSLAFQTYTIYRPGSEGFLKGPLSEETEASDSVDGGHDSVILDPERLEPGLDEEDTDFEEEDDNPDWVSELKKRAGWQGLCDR

[9] = molecular target: Deoxycytidine kinase (Homo sapiens, UniProt P27707)
[10] = molecular target: Serine/threonine-protein kinase PAK 2 (Homo sapiens, UniProt Q13177)
[11] = molecular target: T2, Ribosyldihydronicotinamide dehydrogenase [quinone] (Homo sapiens, UniProt P16083)
T2 sequence (P16083 whole entry): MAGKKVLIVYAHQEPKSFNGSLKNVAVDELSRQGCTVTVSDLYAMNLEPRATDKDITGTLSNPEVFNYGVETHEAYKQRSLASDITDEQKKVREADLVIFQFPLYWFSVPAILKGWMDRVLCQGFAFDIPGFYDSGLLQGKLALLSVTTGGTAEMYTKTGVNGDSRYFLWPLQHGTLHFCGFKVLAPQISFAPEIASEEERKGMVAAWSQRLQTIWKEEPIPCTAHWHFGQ

[12] = molecular target: T3, Serine/threonine-protein kinase LATS1 (Homo sapiens, UniProt O95835)
T3 sequence (O95835 whole entry): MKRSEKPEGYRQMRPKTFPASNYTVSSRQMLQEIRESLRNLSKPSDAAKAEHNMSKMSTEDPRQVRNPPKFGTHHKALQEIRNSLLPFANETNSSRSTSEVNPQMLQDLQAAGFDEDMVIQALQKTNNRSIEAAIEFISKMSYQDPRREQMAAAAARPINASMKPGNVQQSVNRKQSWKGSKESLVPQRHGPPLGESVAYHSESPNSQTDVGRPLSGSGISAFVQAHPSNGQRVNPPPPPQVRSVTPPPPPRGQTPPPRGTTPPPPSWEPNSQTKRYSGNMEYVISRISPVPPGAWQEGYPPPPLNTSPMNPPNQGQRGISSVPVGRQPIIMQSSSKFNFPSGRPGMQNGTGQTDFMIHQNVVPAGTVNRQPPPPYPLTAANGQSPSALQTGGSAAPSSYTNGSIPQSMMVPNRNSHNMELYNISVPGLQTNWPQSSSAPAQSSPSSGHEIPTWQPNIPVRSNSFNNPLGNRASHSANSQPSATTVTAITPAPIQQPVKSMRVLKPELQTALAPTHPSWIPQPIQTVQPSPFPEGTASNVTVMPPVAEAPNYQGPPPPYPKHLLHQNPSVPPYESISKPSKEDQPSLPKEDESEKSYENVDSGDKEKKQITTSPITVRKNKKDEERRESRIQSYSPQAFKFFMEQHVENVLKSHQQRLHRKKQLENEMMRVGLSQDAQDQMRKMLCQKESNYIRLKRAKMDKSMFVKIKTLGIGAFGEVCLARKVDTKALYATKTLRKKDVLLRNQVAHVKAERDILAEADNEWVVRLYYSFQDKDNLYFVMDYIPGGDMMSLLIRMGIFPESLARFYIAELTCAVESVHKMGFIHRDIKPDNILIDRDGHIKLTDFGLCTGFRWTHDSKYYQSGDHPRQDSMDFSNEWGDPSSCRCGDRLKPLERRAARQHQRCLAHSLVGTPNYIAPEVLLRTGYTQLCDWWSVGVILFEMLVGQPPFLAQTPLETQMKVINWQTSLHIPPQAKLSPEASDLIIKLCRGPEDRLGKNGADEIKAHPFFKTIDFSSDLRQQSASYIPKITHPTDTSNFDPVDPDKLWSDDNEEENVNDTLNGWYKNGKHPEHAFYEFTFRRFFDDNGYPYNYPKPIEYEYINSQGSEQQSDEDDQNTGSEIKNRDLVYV
Also: in the data inactive means no Kd found up to 30 µM.

Chain of Deoxycytidine kinase (P27707 whole entry): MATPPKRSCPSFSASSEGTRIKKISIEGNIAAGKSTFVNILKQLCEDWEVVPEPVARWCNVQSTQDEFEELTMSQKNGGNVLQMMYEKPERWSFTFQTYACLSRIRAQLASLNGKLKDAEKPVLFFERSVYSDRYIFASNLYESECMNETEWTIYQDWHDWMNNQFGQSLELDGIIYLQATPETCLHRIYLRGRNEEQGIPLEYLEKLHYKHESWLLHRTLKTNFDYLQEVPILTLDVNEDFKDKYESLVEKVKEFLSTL
Chain of Mitogen-activated protein kinase kinase kinase 1 (Q13233 whole entry): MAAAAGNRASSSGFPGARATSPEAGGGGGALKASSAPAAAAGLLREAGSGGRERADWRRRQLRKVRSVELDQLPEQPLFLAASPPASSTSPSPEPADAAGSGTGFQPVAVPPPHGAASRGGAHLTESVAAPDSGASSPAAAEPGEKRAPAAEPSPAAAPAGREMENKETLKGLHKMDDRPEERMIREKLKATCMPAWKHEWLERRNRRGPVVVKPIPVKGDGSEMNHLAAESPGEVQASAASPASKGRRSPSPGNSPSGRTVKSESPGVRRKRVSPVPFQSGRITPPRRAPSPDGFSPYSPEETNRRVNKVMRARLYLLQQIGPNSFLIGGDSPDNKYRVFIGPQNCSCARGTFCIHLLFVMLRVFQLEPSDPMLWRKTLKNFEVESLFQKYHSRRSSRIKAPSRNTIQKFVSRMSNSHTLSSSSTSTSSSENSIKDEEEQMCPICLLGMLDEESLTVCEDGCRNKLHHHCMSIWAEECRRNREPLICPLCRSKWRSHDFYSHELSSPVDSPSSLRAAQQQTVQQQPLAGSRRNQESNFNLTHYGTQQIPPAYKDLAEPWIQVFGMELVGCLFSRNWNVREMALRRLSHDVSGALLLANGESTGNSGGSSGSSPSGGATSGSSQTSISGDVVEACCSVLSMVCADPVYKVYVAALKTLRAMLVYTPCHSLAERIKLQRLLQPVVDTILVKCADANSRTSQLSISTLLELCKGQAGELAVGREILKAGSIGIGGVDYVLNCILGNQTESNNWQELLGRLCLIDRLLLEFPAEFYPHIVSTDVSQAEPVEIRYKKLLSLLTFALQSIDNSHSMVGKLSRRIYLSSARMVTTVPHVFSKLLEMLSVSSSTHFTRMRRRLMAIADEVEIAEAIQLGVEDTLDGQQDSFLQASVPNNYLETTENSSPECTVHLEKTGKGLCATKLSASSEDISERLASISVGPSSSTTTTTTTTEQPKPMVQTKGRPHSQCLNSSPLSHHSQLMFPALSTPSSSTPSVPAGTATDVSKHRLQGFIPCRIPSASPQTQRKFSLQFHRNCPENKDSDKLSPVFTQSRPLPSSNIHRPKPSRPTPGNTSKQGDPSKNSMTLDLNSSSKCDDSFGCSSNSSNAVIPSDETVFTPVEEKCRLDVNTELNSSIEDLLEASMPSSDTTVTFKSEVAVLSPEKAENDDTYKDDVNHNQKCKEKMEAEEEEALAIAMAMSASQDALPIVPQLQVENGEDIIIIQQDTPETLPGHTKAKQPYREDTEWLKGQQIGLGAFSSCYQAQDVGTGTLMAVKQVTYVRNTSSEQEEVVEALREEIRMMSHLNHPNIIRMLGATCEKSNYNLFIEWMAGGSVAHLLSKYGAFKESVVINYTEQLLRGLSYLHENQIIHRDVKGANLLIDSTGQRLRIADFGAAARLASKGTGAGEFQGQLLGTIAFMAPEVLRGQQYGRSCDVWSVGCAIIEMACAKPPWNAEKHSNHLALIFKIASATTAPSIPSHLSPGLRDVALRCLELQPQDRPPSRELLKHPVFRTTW
Chain of Cyclin-dependent kinase 1 (P06493 whole entry): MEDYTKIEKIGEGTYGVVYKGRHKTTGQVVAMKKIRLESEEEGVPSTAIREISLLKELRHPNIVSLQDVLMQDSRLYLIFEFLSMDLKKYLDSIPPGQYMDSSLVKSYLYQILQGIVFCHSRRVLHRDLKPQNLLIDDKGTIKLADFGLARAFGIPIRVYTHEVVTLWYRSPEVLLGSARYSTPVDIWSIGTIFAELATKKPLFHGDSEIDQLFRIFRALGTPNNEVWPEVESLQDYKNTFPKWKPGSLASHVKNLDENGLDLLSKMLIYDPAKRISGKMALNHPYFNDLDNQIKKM
Chain of Epithelial discoidin domain-containing receptor 1 (Q08345 whole entry, the tested form may be a part): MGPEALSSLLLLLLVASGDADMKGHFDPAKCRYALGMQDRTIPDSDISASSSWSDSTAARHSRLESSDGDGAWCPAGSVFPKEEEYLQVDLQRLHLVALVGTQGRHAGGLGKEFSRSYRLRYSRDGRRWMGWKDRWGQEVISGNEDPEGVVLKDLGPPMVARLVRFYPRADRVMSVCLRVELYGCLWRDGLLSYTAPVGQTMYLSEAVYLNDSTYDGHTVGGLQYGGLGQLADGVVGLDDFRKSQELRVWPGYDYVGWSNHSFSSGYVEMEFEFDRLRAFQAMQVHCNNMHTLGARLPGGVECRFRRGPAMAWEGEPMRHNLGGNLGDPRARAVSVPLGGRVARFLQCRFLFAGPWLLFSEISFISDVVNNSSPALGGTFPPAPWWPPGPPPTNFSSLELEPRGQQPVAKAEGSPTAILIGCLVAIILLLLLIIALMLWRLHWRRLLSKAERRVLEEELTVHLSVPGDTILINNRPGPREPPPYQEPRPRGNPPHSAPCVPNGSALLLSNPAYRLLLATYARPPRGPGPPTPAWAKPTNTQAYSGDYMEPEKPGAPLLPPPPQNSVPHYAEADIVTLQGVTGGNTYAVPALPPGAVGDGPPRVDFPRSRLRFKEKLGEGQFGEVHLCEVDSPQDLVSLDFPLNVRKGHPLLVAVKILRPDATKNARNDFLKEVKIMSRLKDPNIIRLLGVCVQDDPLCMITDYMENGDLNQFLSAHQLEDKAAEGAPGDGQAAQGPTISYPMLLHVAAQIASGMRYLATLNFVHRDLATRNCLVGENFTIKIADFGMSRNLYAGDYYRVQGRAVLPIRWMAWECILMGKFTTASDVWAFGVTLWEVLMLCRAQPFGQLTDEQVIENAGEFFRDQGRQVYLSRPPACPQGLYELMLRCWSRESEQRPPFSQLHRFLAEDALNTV
Chain of Putative heat shock protein HSP 90-beta 2 (Q58FF8 whole entry): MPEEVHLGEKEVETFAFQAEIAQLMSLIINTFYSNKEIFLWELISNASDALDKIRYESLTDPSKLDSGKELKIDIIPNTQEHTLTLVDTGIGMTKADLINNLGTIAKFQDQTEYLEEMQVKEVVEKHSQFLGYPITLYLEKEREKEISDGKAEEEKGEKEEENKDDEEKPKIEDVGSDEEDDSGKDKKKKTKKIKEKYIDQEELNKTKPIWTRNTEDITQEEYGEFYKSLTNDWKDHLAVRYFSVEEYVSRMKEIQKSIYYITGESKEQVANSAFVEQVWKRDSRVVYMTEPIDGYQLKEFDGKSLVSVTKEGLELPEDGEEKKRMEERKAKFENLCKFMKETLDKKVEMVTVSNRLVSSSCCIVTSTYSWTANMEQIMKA
Chain of Serine/threonine-protein kinase PAK 2 (Q13177 whole entry): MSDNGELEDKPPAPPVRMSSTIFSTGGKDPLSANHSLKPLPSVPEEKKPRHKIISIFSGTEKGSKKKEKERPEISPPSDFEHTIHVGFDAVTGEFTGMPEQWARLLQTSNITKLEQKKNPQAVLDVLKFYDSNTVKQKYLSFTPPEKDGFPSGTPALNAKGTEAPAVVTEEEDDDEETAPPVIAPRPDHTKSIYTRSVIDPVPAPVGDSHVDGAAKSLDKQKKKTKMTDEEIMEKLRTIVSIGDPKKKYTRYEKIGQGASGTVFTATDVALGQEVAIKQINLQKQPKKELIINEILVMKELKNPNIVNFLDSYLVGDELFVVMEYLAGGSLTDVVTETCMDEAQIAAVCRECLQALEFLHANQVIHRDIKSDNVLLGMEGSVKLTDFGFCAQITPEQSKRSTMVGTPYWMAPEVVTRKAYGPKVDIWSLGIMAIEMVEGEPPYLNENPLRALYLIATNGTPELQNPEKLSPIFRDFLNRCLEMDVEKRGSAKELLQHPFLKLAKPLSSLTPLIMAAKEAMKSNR
Chain of Platelet-derived growth factor receptor beta (P09619 whole entry): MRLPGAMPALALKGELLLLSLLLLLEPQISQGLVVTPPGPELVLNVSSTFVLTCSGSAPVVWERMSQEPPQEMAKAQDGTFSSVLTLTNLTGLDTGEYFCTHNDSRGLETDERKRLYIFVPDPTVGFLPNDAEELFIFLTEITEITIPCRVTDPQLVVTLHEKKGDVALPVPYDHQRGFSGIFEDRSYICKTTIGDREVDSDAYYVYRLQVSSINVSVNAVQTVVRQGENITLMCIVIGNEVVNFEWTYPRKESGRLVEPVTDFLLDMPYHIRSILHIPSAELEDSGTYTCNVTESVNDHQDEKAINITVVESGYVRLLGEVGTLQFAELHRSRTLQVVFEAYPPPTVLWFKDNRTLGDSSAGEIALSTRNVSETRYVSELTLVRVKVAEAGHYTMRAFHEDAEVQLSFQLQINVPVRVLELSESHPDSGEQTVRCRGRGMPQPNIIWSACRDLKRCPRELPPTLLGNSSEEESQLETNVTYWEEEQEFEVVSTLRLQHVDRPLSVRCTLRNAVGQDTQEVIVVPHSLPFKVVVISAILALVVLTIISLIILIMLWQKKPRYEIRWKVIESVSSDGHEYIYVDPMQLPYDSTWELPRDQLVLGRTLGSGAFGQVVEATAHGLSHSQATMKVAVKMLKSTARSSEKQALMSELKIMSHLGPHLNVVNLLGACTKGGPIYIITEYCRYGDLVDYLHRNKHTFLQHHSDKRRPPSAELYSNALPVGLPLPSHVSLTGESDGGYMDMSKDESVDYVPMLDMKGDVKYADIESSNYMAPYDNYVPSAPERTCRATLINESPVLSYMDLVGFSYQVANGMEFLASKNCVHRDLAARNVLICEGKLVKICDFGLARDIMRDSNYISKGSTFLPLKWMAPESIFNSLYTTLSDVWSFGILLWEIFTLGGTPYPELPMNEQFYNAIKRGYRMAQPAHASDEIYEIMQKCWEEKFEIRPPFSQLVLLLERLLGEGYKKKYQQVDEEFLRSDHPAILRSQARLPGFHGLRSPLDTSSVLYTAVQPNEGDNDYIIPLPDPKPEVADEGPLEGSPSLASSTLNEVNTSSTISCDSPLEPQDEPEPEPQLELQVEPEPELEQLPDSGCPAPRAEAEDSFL

Compound | Kd [1] | Kd [2] | Kd [3] | Kd [4] | Kd [5] | Kd [6] | Kd [7] | Kd [8] | Kd [9] | Kd [10] | Kd [11] | Kd [12]
CCS(=O)(=O)N1CC(CC#N)(n2cc(-c3ncnc4[nH]ccc34)cn2)C1 [BARICITINIB] | > 30 µM (inactive) | > 30 µM (inactive) | > 30 µM (inactive) | 1.89 µM (active) | > 30 µM (inactive) | > 30 µM (inactive) | > 30 µM (inactive) | > 30 µM (inactive) | > 30 µM (inactive) | > 30 µM (inactive) | > 30 µM (inactive) | > 30 µM (inactive)
Cc1cc2c(F)c(Oc3ncnn4cc(OC[C@@H](C)OC(=O)[C@H](C)N)c(C)c34)ccc2[nH]1 [BRIVANIB ALANINATE] | 1.89 µM (active) | > 30 µM (inactive) | > 30 µM (inactive) | > 30 µM (inactive) | > 30 µM (inactive) | > 30 µM (inactive) | 1.04 µM (active) | > 30 µM (inactive) | > 30 µM (inactive) | > 30 µM (inactive) | > 30 µM (inactive) | > 30 µM (inactive)
CNC(=O)c1ccc(-c2cnc3ncc(Cc4ccc5ncccc5c4)n3n2)cc1F [CAPMATINIB] | > 30 µM (inactive) | > 30 µM (inactive) | > 30 µM (inactive) | > 30 µM (inactive) | > 30 µM (inactive) | > 30 µM (inactive) | > 30 µM (inactive) | > 30 µM (inactive) | > 30 µM (inactive) | > 30 µM (inactive) | > 30 µM (inactive) | > 30 µM (inactive)
O=C(c1ccc(F)c(F)c1Nc1ccc(I)cc1F)N1CC(O)([C@@H]2CCCCN2)C1 [COBIMETINIB] | > 30 µM (inactive) | > 30 µM (inactive) | > 30 µM (inactive) | > 30 µM (inactive) | > 30 µM (inactive) | > 30 µM (inactive) | > 30 µM (inactive) | > 30 µM (inactive) | > 30 µM (inactive) | > 30 µM (inactive) | > 30 µM (inactive) | > 30 µM (inactive)
COC(=O)N[C@@H](C)CNc1nccc(-c2cn(C(C)C)nc2-c2cc(Cl)cc(NS(C)(=O)=O)c2F)n1 [ENCORAFENIB] | > 30 µM (inactive) | > 30 µM (inactive) | > 30 µM (inactive) | > 30 µM (inactive) | > 30 µM (inactive) | > 30 µM (inactive) | > 30 µM (inactive) | > 30 µM (inactive) | > 30 µM (inactive) | > 30 µM (inactive) | > 30 µM (inactive) | > 30 µM (inactive)
Cc1ccc(-n2nc(C(C)(C)C)cc2NC(=O)NCc2cc(F)ccc2Oc2ccc3c(cnn3CCO)c2)cc1 [PEXMETINIB] | > 30 µM (inactive) | 30.4 µM (active) | > 30 µM (inactive) | > 30 µM (inactive) | > 30 µM (inactive) | > 30 µM (inactive) | 0.363 µM (active) | > 30 µM (inactive) | > 30 µM (inactive) | > 30 µM (inactive) | > 30 µM (inactive) | > 30 µM (inactive)

Other lines, results leading:

Kd [1] | Kd [2] | Kd [3] | Kd [4] | Kd [5] | Kd [6] | Kd [7] | Kd [8] | Kd [9] | Kd [10] | Kd [11] | Kd [12] | Compound
> 30 µM (inactive) | > 30 µM (inactive) | > 30 µM (inactive) | > 30 µM (inactive) | > 30 µM (inactive) | > 30 µM (inactive) | > 30 µM (inactive) | > 30 µM (inactive) | > 30 µM (inactive) | > 30 µM (inactive) | > 30 µM (inactive) | > 30 µM (inactive) | CO[C@H]1C[C@@H]2CC[C@@H](C)[C@@](O)(O2)C(=O)C(=O)N2CCCC[C@H]2C(=O)O[C@H]([C@H](C)C[C@@H]2CC[C@@H](OCCO)[C@H](OC)C2)CC(=O)[C@H](C)/C=C(\C)[C@@H](O)[C@@H](OC)C(=O)[C@H](C)C[C@H](C)/C=C/C=C/C=C/1C [EVEROLIMUS]
> 30 µM (inactive) | > 30 µM (inactive) | > 30 µM (inactive) | > 30 µM (inactive) | > 30 µM (inactive) | > 30 µM (inactive) | > 30 µM (inactive) | > 30 µM (inactive) | > 30 µM (inactive) | > 30 µM (inactive) | > 30 µM (inactive) | > 30 µM (inactive) | O=C1NC(=O)/C(=C/c2ccc3nccc(-c4ccncc4)c3c2)S1 [GSK-1059615]
> 30 µM (inactive) | > 30 µM (inactive) | > 30 µM (inactive) | > 30 µM (inactive) | > 30 µM (inactive) | > 30 µM (inactive) | > 30 µM (inactive) | > 30 µM (inactive) | > 30 µM (inactive) | > 30 µM (inactive) | > 30 µM (inactive) | > 30 µM (inactive) | CC[C@H](Nc1ncnc2[nH]cnc12)c1nc2cccc(F)c2c(=O)n1-c1ccccc1 [IDELALISIB]
> 30 µM (inactive) | > 30 µM (inactive) | > 30 µM (inactive) | > 30 µM (inactive) | > 30 µM (inactive) | > 30 µM (inactive) | > 30 µM (inactive) | > 30 µM (inactive) | > 30 µM (inactive) | > 30 µM (inactive) | 0.323 µM (active) | > 30 µM (inactive) | Cn1cc(-c2ccc3nnc(C(F)(F)c4ccc5ncccc5c4)n3n2)cn1 [JNJ-38877605]
0.316 µM (active) | > 30 µM (inactive) | > 30 µM (inactive) | > 30 µM (inactive) | > 30 µM (inactive) | > 30 µM (inactive) | 0.046 µM (active) | > 30 µM (inactive) | > 30 µM (inactive) | > 30 µM (inactive) | 1.52 µM (active) | > 30 µM (inactive) | COc1cc2nccc(Oc3ccc(NC(=O)NC4CC4)c(Cl)c3)c2cc1C(N)=O [LENVATINIB]
> 30 µM (inactive) | 0.343 µM (active) | > 30 µM (inactive) | > 30 µM (inactive) | > 30 µM (inactive) | > 30 µM (inactive) | 1.22 µM (active) | > 30 µM (inactive) | > 30 µM (inactive) | > 30 µM (inactive) | > 30 µM (inactive) | > 30 µM (inactive) | O=C(O)[C@]1(Cc2cccc(Nc3nccs3)n2)CC[C@@H](Oc2cccc(Cl)c2F)CC1 [MK-5108]
> 30 µM (inactive) | > 30 µM (inactive) | > 30 µM (inactive) | > 30 µM (inactive) | > 30 µM (inactive) | > 30 µM (inactive) | > 30 µM (inactive) | > 30 µM (inactive) | > 30 µM (inactive) | > 30 µM (inactive) | > 30 µM (inactive) | > 30 µM (inactive) | CNC(=O)c1ccc(C)c(-n2c(C)cc(OCc3ccc(F)cc3F)c(Br)c2=O)c1 [PH-797804]
